ChEMBL document CHEMBL1148913, “Celogenamide A, a new cyclic peptide from the seeds of Celosia argentea” (J Nat Prod, 2004)
pIC50: −log10 of the molar value.

Assay: Inhibition of tubulin polymerization assessed as turbidity by microtubule assembly assay

Structure (SMILES) | pIC50
COC(=O)[C@@H]1Cc2cn(c3ccccc23)[C@@H](NC(=O)[C@H](Cc2ccc(O)cc2)NC(=O)[C@@H]2CCCN2C(=O)[C@@H]2CCC(=O)N2)C(=O)N[C@@H](C(C)C)C(=O)N[C@@H](Cc2ccccc2)C(=O)N[C@@H](CO)C(=O)N1 [LYCIUMIN C] | < 4.00
COC(=O)[C@@H]1Cc2cn(c3ccccc23)[C@@H](NC(=O)[C@H](Cc2ccc(O)cc2)NC(=O)[C@@H]2CCCN2C(=O)[C@@H]2CCC(=O)N2)C(=O)N[C@@H](C(C)C)C(=O)NCC(=O)N[C@@H](CO)C(=O)N1 [LYCLUMIN A] | < 4.00
CC(C)[C@@H]1NC(=O)[C@H](NC(=O)[C@H](Cc2ccc(O)cc2)NC(=O)[C@@H]2CCCN2C(=O)[C@@H]2CCC(=O)N2)n2cc(c3ccccc32)C[C@@H](C(=O)N[C@@H](CCCCN)C(=O)O)NC(=O)[C@H](CO)NC(=O)[C@H](Cc2ccccc2)NC1=O [CELOGENAMIDE A] | < 4.00
